According to article PMC7216583 (Parasites & Vectors, 2020):
Where a name gives a salt, the structure may show the parent alone. Read-outs that look alike come from different tables or passages of the source.

System: Toxoplasma gondii RH-2F tachyzoites
Assay: microbe, parasite or virus in culture
Conditions: 72 h
[1] = read-out: Parasite inhibition (%) mean
[2] = read-out: Parasite inhibition (%) mean, preliminary screen of compound library, mean
[3] = read-out: Parasite inhibition (%) mean, preliminary screen, mean

CNC[C@H](O)c1ccc(O)c(O)c1 [L-Adrenaline (Epinephrine)]
inhibition of growth at 5 µM [1]: 0.4%

O[C@@H](COc1cccc2ncccc12)CN1CCN([C@@H]2c3ccccc3[C@@H]3[C@H](c4ccccc42)C3(F)F)CC1 [LY335979 (Zosuquidar 3HCl)]
inhibition of growth at 5 µM [1]: -7.9%

Cc1cccc(-c2nn3c(c2-c2ccnc4ccc(C(N)=O)cc24)CCC3)n1 [LY2157299]
inhibition of growth at 5 µM [2]: 5.2%

Cc1cnc(NC(=O)Nc2cc(Br)c(C)cc2OC[C@@H]2CNCCO2)cn1 [LY2603618 (IC-83)]
inhibition of growth at 5 µM [2]: 22.7%

NC1=N[C@@]2(c3cc(NC(=O)c4ccc(F)cn4)ccc3F)COC[C@H]2CS1 [LY2886721]
inhibition of growth at 5 µM [3]: 35.7%

CN(C(=O)c1ccc(F)cc1C(F)(F)F)C1CCN(c2nnc(-c3ccnn3C)c3ccccc23)CC1 [LY2940680]
inhibition of growth at 5 µM [3]: 2.1%

CS(=O)(=O)CCNCc1ccc(-c2ccc3ncnc(Nc4ccc(OCc5cccc(F)c5)c(Cl)c4)c3c2)o1 [Lapatinib Ditosylate (Tykerb)]
inhibition of growth at 5 µM [3]: 3.3%

c1ccc([C@H]2CN3CCSC3=N2)cc1 [Levamisole Hydrochloride (Ergamisol)]
inhibition of growth at 5 µM [1]: 63.9%

N[C@@H](Cc1ccc(O)c(O)c1)C(=O)O [Levodopa (Sinemet)]
inhibition of growth at 5 µM [2]: 12.1%

C[C@H]1CNCCc2ccc(Cl)cc21 [Lorcaserin HCl]
inhibition of growth at 5 µM [2]: 34.8%

CNC(=O)c1ccc(N2C(=S)N(c3ccc(C#N)c(C(F)(F)F)c3)C(=O)C2(C)C)cc1F [MDV3100 (Enzalutamide)]
inhibition of growth at 5 µM [3]: 35.7%

C=CCn1c(=O)c2cnc(Nc3ccc(N4CCN(C)CC4)cc3)nc2n1-c1cccc(C(C)(C)O)n1 [MK-1775]
inhibition of growth at 5 µM [3]: 0%

NC1(c2ccc(-c3nc4ccn5c(=O)[nH]nc5c4cc3-c3ccccc3)cc2)CCC1 [MK-2206 2HCl]
inhibition of growth at 5 µM [3]: 45.5%

O=C(O)[C@]1(Cc2cccc(Nc3nccs3)n2)CC[C@@H](Oc2cccc(Cl)c2F)CC1 [MK-5108 (VX-689)]
inhibition of growth at 5 µM [2]: 60.4%

O=C(O)Cn1nnc(-c2cc(N3CCC(Oc4cc(F)ccc4Br)CC3)no2)n1 [MK-8245]
inhibition of growth at 5 µM [3]: 14.5%

O=C(O)c1ccc(Nc2ncc3c(n2)-c2ccc(Cl)cc2C(c2c(F)cccc2F)=NC3)cc1 [MLN8054]
inhibition of growth at 5 µM [3]: 58.4%

COc1cc(Nc2ncc3c(n2)-c2ccc(Cl)cc2C(c2c(F)cccc2OC)=NC3)ccc1C(=O)O [MLN8237 (Alisertib)]
inhibition of growth at 5 µM [3]: 58.9%

CC(C)OC(=O)C(C(=O)OC(C)C)=C1SC=CS1 [Malotilate]
inhibition of growth at 5 µM [2]: 0.5%

COC(=O)C1=C(C)NC(C)=C(C(=O)OCCN2CCN(C(c3ccccc3)c3ccccc3)CC2)C1c1cccc([N+](=O)[O-])c1 (centres unmarked) [Manidipine (Manyper)]
inhibition of growth at 5 µM [2]: 1.1%

CN1CCN(c2c(F)cc3c(=O)c(C(=O)O)cn4c3c2OCN4C)CC1 [Marbofloxacin]
inhibition of growth at 5 µM [2]: 8.7%

CN1CCN2c3ncccc3Cc3ccccc3C2C1 (centres unmarked) [Mirtazapine (Remeron, Avanza)]
inhibition of growth at 5 µM [2]: 33.1%

O=C(O)[C@H](CC(=O)N1C[C@H]2CCCC[C@H]2C1)Cc1ccccc1 [Mitiglinide calcium]
inhibition of growth at 5 µM [3]: 0.9%

CCOC(=O)[C@H](CCc1ccccc1)N[C@@H](C)C(=O)N1Cc2cc(OC)c(OC)cc2C[C@H]1C(=O)O [Moexipril HCl]
inhibition of growth at 5 µM [3]: 35.3%

Cc1ccc(S(=O)(=O)OCC(=O)Nc2ccc(C(=O)O)c(O)c2)cc1 [NSC 74859 (S3I-201)]
inhibition of growth at 5 µM [3]: -25.8%

Fc1cc(-c2cccc3ncc(-c4cnn(C5CCNCC5)c4)nc23)cc(F)c1CN1CCOCC1 [NVP-BSK805 2HCl]
inhibition of growth at 5 µM [2]: 14.6%

CNS(=O)(=O)CCc1ccc2[nH]cc(C3CCN(C)CC3)c2c1 [Naratriptan HCl]
inhibition of growth at 5 µM [3]: 0.6%

O[C@H](CNC[C@@H](O)[C@H]1CCc2cc(F)ccc2O1)[C@@H]1CCc2cc(F)ccc2O1 [Nebivolol (Bystolic)]
inhibition of growth at 5 µM [3]: 68.9%

NC(=O)Cc1cccc(C(=O)c2ccccc2)c1N [Nepafenac]
inhibition of growth at 5 µM [2]: -10.3%

CCOc1cc2ncc(C#N)c(Nc3ccc(OCc4ccccn4)c(Cl)c3)c2cc1NC(=O)/C=C/CN(C)C [Neratinib (HKI-272)]
inhibition of growth at 5 µM [3]: -11.6%

Cc1cn(-c2cc(NC(=O)c3ccc(C)c(Nc4nccc(-c5cccnc5)n4)c3)cc(C(F)(F)F)c2)cn1 [Nilotinib (AMN-107)]
inhibition of growth at 5 µM [3]: 0.1%

C[C@](O)(COc1ccc(C#N)cc1)C(=O)Nc1ccc(C#N)c(C(F)(F)F)c1 [Ostarine (MK-2866)]
inhibition of growth at 5 µM [3]: 0.7%

CCCCCCCCOc1ccccc1C(=O)Nc1ccc(C(=O)OCC[N+](C)(CC)CC)cc1 [Otilonium Bromide]
inhibition of growth at 5 µM [2]: 0.7%

CCN(CC)CC#CCOC(=O)C(O)(c1ccccc1)C1CCCCC1 (centres unmarked) [Oxybutynin (Ditropan)]
inhibition of growth at 5 µM [3]: -3.2%

CN(C)[C@@H]1C(O)=C(C(N)=O)C(=O)[C@@]2(O)C(=O)C3=C(O)c4c(O)cccc4[C@@](C)(O)[C@H]3[C@H](O)[C@@H]12 [Oxytetracycline (Terramycin)]
inhibition of growth at 5 µM [2]: 33.5%

C=CC(=O)N1CCC[C@@H](n2nc(-c3ccc(Oc4ccccc4)cc3)c3c(N)ncnc32)C1 [PCI-32765 (Ibrutinib)]
inhibition of growth at 5 µM [2]: -0.8%

C=CC(=O)Nc1ccc2ncnc(Nc3cccc(Br)c3)c2c1 [PD168393]
inhibition of growth at 5 µM [2]: -0.1%

O=C(NOCC(O)CO)c1cc(Br)c(F)c(F)c1Nc1ccc(I)cc1F (centres unmarked) [PD318088]
inhibition of growth at 5 µM [3]: -12.9%

O=C(NOC[C@H](O)CO)c1ccc(F)c(F)c1Nc1ccc(I)cc1F [PD0325901]
inhibition of growth at 5 µM [3]: -6.9%

CCCN1CCO[C@@H]2c3cc(O)ccc3OC[C@@H]21 [PD 128907 HCl]
inhibition of growth at 5 µM [3]: 1.8%

O=C(Nc1cccnc1)N1CCC(Cc2cccc(Oc3ccc(C(F)(F)F)cn3)c2)CC1 [PF-3845]
inhibition of growth at 5 µM [2]: 6.7%

CN(C)C1CCN(C(=O)c2ccc(NC(=O)Nc3ccc(-c4nc(N5CCOCC5)nc(N5CCOCC5)n4)cc3)cc2)CC1 [PF-05212384 (PKI-587)]
inhibition of growth at 5 µM [2]: 40.5%

COc1ccccc1S(=O)(=O)Nc1ccc2c(c1)CN(C)C(=O)N2 [PFI-1]
inhibition of growth at 5 µM [3]: 2.2%

Nc1ncnc2c1c(-c1cnc3[nH]ccc3c1)nn2C1CCCC1 [PP-121]
inhibition of growth at 5 µM [2]: 36.8%

C[C@@]12C[C@@]3(O)O[C@@H](O1)[C@]1(COC(=O)c4ccccc4)[C@H]3C[C@@]12O[C@@H]1O[C@H](CO)[C@@H](O)[C@H](O)[C@H]1O [Paeoniflorin]
inhibition of growth at 5 µM [2]: 0.7%

CCOc1cc2ncc(C#N)c(Nc3ccc(F)c(Cl)c3)c2cc1NC(=O)/C=C/CN(C)C [Pelitinib (EKB-569)]
inhibition of growth at 5 µM [3]: -28.8%

N=C(N)c1ccc(OCCCCCOc2ccc(C(=N)N)cc2)cc1 [Pentamidine HCl]
inhibition of growth at 5 µM [2]: 23.6%

O=C1c2ccccc2C(=O)C1c1ccccc1 [Phenindione (Rectadione)]
inhibition of growth at 5 µM [2]: -1.7%

CC[C@@H]1/C=C(\C)C[C@H](C)C[C@H](OC)[C@H]2O[C@@](O)(C(=O)C(=O)N3CCCC[C@H]3C(=O)O[C@H](/C(C)=C/[C@@H]3CC[C@H](Cl)[C@H](OC)C3)[C@H](C)[C@@H](O)CC1=O)[C@H](C)C[C@@H]2OC [Pimecrolimus]
inhibition of growth at 5 µM [2]: -12.9%

Cc1ccc(C(=O)Nc2ccc(CN3CCN(C)CC3)c(C(F)(F)F)c2)cc1C#Cc1cnc2cccnn12 [Ponatinib (AP24534)]
inhibition of growth at 5 µM [3]: 49.3%

CC(C)N(CCNC(=O)CN1CCCC1=O)C(C)C [Pramiracetam]
inhibition of growth at 5 µM [2]: 24.1%

C[C@]12C=CC(=O)C=C1CC[C@@H]1[C@H]2C(=O)C[C@@]2(C)[C@H]1CC[C@@]2(O)C(=O)CO [Prednisone (Adasone)]
inhibition of growth at 5 µM [2]: 33.8%

CCCNC(C)C(=O)Nc1ccccc1C (centres unmarked) [Prilocaine]
inhibition of growth at 5 µM [2]: -21.8%

CN(C)C(=O)Oc1ccc[n+](C)c1 [Pyridostigmine Bromide (Mestinon)]
inhibition of growth at 5 µM [3]: -6.5%

C#CCN[C@@H]1CCc2ccccc21 [Rasagiline mesylate]
inhibition of growth at 5 µM [1]: 13.3%

COc1cc(OC)c(/C=C/S(=O)(=O)Cc2ccc(OC)c(NCC(=O)O)c2)c(OC)c1 [Rigosertib (ON-01910)]
inhibition of growth at 5 µM [3]: 0.1%

Cc1c(C(=O)NN2CCCCC2)nn(-c2ccc(Cl)cc2Cl)c1-c1ccc(Cl)cc1 [Rimonabant (SR141716)]
inhibition of growth at 5 µM [2]: 5.1%

CCN(C)C(=O)Oc1cccc([C@H](C)N(C)C)c1 [Rivastigmine tartrate (Exelon)]
inhibition of growth at 5 µM [3]: 22.8%

O=C(CCCCCCNC(=O)c1cnc(N(c2ccccc2)c2ccccc2)nc1)NO [Rocilinostat (ACY-1215)]
inhibition of growth at 5 µM [2]: 2.9%

CC[C@H](CO)Nc1nc(NCc2ccccc2)c2ncn(C(C)C)c2n1 [Roscovitine (Seliciclib, CYC202)]
inhibition of growth at 5 µM [3]: 12.2%

CC(C)c1nc(N(C)S(C)(=O)=O)nc(-c2ccc(F)cc2)c1/C=C/[C@@H](O)C[C@@H](O)CC(=O)O [Rosuvastatin calcium (Crestor)]
inhibition of growth at 5 µM [2]: -0.1%

CNCc1ccc(-c2[nH]c3cc(F)cc4c3c2CCNC4=O)cc1 [Rucaparib (AG-014699 , PF-01367338)]
inhibition of growth at 5 µM [3]: 26.1%

NC(=O)c1cn(Cc2c(F)cccc2F)nn1 [Rufinamide (Banzel)]
inhibition of growth at 5 µM [3]: 1.7%

C[C@H]1CCO[C@H]2Cn3cc(C(=O)NCc4ccc(F)cc4F)c(=O)c(O)c3C(=O)N21 [S/GSK1349572 (GSK1349572)]
inhibition of growth at 5 µM [2]: 0.2%

COc1ccc(NS(=O)(=O)c2sc3ccc(Cl)cc3c2C)cc1N1CCNCC1 [SB 271046]
inhibition of growth at 5 µM [2]: -0.6%

CC1CCN(CC[C@H]2CCCN2S(=O)(=O)c2cccc(O)c2)CC1 [SB-269970 HCl]
inhibition of growth at 5 µM [2]: -10.7%

O=S(=O)(c1ccccc1)c1cnc2c(N3CCNCC3)cccc2c1 [SB-742457]
inhibition of growth at 5 µM [2]: 0.6%

Cn1cc(-c2ccc3nnc(Sc4ccc5ncccc5c4)n3n2)cn1 [SGX-523]
inhibition of growth at 5 µM [3]: 45.5%

CC1(C)CC(=O)c2c(C(F)(F)F)nn(-c3ccc(C(N)=O)c(N[C@H]4CC[C@H](O)CC4)c3)c2C1 [SNX-2112]
inhibition of growth at 5 µM [2]: 9.9%

Cc1cccc(Nc2nc(-c3ccncc3)cs2)c1 [STF-62247]
inhibition of growth at 5 µM [3]: 15.2%

N#C[C@@H]1C[C@@H]2C[C@H]2N1C(=O)[C@@H](N)C12CC3CC(CC(O)(C3)C1)C2 [Saxagliptin (BMS-477118,Onglyza)]
inhibition of growth at 5 µM [3]: 9.7%

Cc1cc(C)c(/C=C2\C(=O)Nc3ccccc32)[nH]1 [Semaxanib (SU5416)]
inhibition of growth at 5 µM [2]: -78.8%
